Laboratory results: patent publication US20230295234A1, “ANTIMICROBIAL PEPTIDOMIMETICS” (SPEXIS AG, priority 2020, published 2023)
Bridge positions count the residues as written; N and C are the ends. Square brackets hold non-standard residues; d marks the D form. Peptide text beside a SMILES is read from it. dDab = NCC[C@@H](N)C(=O)O; Dab = NCC[C@H](N)C(=O)O; Nlys = NCCCCNCC(=O)O

Key:
[1] = system: human red blood cells (hRBC); experiment: Hemolysis of human red blood cells; assay type: cell-based; conditions: red cells of human, 1 h
How it was run: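 Percent hemolysis is OD540 of peptide-treated supernatant relative to water-lysed cells. Each peptide was tested at 200 μg/mL against 20% (v/v) washed human erythrocytes. Incubation was 1 h at 37 °C, 300 rpm.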

[2] = system: Klebsiella pneumoniae SSI3010; conditions: SSI3010
How it was run: (§1)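 Peptides were made up as 1 mg/mL stocks in sterile water. Colonies in 0.85% saline were set to 0.5 McFarland, then diluted in cation-adjusted Mueller-Hinton II broth to about 5×10^5 CFU/mL. Inoculum was combined with two-fold serial peptide dilutions in water containing 0.002% (final) polysorbate 80.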

[3] = system: Escherichia coli ATCC 25922; conditions: ATCC 25922
How it was run: as §1

[4] = system: Escherichia coli MCR-1 Af 45; conditions: MCR-1 Af 45
How it was run: as §1

CC[C@H](C)[C@H](NC(=O)[C@@H](NC(=O)[C@@H]1CCCN1C(=O)[C@@H](NC(=O)[C@@H]1CCCN1C(=O)[C@H](CCCCN)NC(=O)CNCCCCN)C(C)C)[C@@H](C)CC)C(=O)N[C@@H](Cc1ccc(O)cc1)C(=O)N[C@H]1CSSC[C@@H](C(=O)N[C@@H](CCN)C(=O)N[C@@H](CCCNC(=N)N)C(=O)N[C@@H](Cc2ccc(O)cc2)C(=O)O)NC(=O)[C@H](CCCCN)NC(=O)[C@@H](CCN)NC(=O)[C@H]([C@@H](C)O)NC(=O)CN(CCCCN)C(=O)[C@H](CCCNC(=N)N)NC(=O)[C@H](CC(N)=O)NC1=O [Example 112] (H-[Nlys]KPVPIIYCNR[Nlys]T[dDab]KC[Dab]RY-OH; disulfide 9-16)
Hemolysis at 0.2 g/L [1]: 0% | Klebsiella pneumoniae SSI3010 MIC [2]: 0.125 mg/L | Escherichia coli ATCC 25922 MIC [3]: 0.25 mg/L | Escherichia coli MCR-1 Af 45 MIC [4]: 0.25 mg/L

CC[C@H](C)[C@H](NC(=O)[C@@H](NC(=O)[C@@H]1CCCN1C(=O)[C@@H](NC(=O)[C@@H]1CCCN1C(=O)[C@H](CCCCN)NC(=O)CNCCN)C(C)C)[C@@H](C)CC)C(=O)N[C@@H](Cc1ccc(O)cc1)C(=O)N[C@H]1CSSC(C)(C)[C@@H](C(=O)N[C@@H](CCN)C(=O)N[C@@H](CCCNC(=N)N)C(=O)N[C@@H](Cc2ccc(O)cc2)C(=O)O)NC(=O)[C@H](CCCCN)NC(=O)[C@@H](CCN)NC(=O)[C@H]([C@@H](C)O)NC(=O)[C@H](CCN)NC(=O)[C@H](CCCNC(=N)N)NC(=O)[C@H](CC(N)=O)NC1=O [Example 113] (HELM PEPTIDE1{[NCCNCC(=O)[*:2]].K.P.V.P.I.I.Y.C.N.R.[Dab].T.[NCC[C@@H](N[*:1])C(=O)[*:2]].K.[Pen].[Dab].R.Y}$PEPTIDE1,PEPTIDE1,9:R3-16:R3$$$V2.0)
Hemolysis at 0.2 g/L [1]: 0% | Klebsiella pneumoniae SSI3010 MIC [2]: 0.125 mg/L | Escherichia coli ATCC 25922 MIC [3]: 0.0625 mg/L | Escherichia coli MCR-1 Af 45 MIC [4]: 0.125 mg/L

CC[C@H](C)[C@H](NC(=O)[C@@H](NC(=O)[C@@H]1CCCN1C(=O)[C@@H](NC(=O)[C@@H]1C[C@@H](N)CN1C(=O)[C@H](CCCCN)NC(=O)[C@@H](N)CCCCN)C(C)C)[C@@H](C)CC)C(=O)N[C@@H](Cc1ccc(O)cc1)C(=O)N[C@@H]1C(=O)N[C@@H](CC(N)=O)C(=O)N[C@@H](CCCNC(=N)N)C(=O)N[C@@H](CCN)C(=O)N[C@@H]([C@@H](C)O)C(=O)N[C@H](CCN)C(=O)N[C@@H](CCCCN)C(=O)N[C@H](C(=O)N[C@@H](CCN)C(=O)N[C@@H](CCCNC(=N)N)C(=O)N[C@@H](Cc2ccc(O)cc2)C(=O)O)CSSC1(C)C [Example 114, Lys-Lys-Pro((4R)NH2)-Val-Pro-Ile-Ile-Tyr-Pen-Asn-Arg-^Dab-Thr-^DDab-Lys-Cys-Dab-Arg-Tyr] (HELM PEPTIDE1{K.K.[N[C@@H]1C[C@@H](C(=O)[*:2])N([*:1])C1].V.P.I.I.Y.[Pen].N.R.[Dab].T.[NCC[C@@H](N[*:1])C(=O)[*:2]].K.C.[Dab].R.Y}$PEPTIDE1,PEPTIDE1,9:R3-16:R3$$$V2.0)
Hemolysis at 0.2 g/L [1]: 0% | Klebsiella pneumoniae SSI3010 MIC [2]: 0.0625 mg/L | Escherichia coli ATCC 25922 MIC [3]: 0.0625 mg/L | Escherichia coli MCR-1 Af 45 MIC [4]: 0.0625 mg/L
